The supplement of paper PMC10307832

Legend:
Assay in all cases: relative viability (nuclei count vs DMSO), 5 days (fraction); higher = more cells survive
GW-2580 + Crizotinib = compound: COC1=CC=C(C=C1)COC2=C(C=C(C=C2)CC3=CN=C(N=C3N)N)OC [GW-2580] + C[C@@H](Oc1cc(-c2cnn(C3CCNCC3)c2)cnc1N)c1c(Cl)ccc(F)c1Cl [Crizotinib] (partner 1 µM)
Procedure, shortened: (§1)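 Lung cancer cell lines in 1536-well plates were dosed by pin tool the day after seeding, either with one drug alone or with a fixed anchor-drug dose plus five library-drug doses (not always all listed) in √10 steps. After 5 days, cells were fixed and their nuclei stained in one step (final 0.05% Triton X-100, 1% formaldehyde, 1 ug/ml Hoechst), then counted on 4× images. Relative viability is the nuclei count in treated wells divided by that in vehicle wells. Values are medians of duplicate plates.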

GW-2580 + Trametinib = compound: COC1=CC=C(C=C1)COC2=C(C=C(C=C2)CC3=CN=C(N=C3N)N)OC [GW-2580] + CC(=O)Nc1cccc(-n2c(=O)n(C3CC3)c(=O)c3c(Nc4ccc(I)cc4F)n(C)c(=O)c(C)c32)c1 [Trametinib] (partner 0.02 µM)
Procedure, shortened: as §1

Fedratinib + Vorinostat = compound: Cc1cnc(Nc2ccc(OCCN3CCCC3)cc2)nc1Nc1cccc(S(=O)(=O)NC(C)(C)C)c1 [Fedratinib] + O=C(CCCCCCC(=O)Nc1ccccc1)NO [Vorinostat] (partner 1 µM)
Procedure, shortened: as §1

GW-2580 + Decitabine = compound: COC1=CC=C(C=C1)COC2=C(C=C(C=C2)CC3=CN=C(N=C3N)N)OC [GW-2580] + Nc1ncn([C@H]2C[C@H](O)[C@@H](CO)O2)c(=O)n1 [Decitabine] (partner 2 µM)
Procedure, shortened: as §1

Fedratinib + Dasatinib = compound: Cc1cnc(Nc2ccc(OCCN3CCCC3)cc2)nc1Nc1cccc(S(=O)(=O)NC(C)(C)C)c1 [Fedratinib] + Cc1nc(Nc2ncc(C(=O)Nc3c(C)cccc3Cl)s2)cc(N2CCN(CCO)CC2)n1 [Dasatinib] (partner 0.075 µM)
Procedure, shortened: as §1

Cell Line	relative viability (GW-2580 + Crizotinib; first compound 0.08 µM)	relative viability (GW-2580 + Crizotinib; first compound 0.8 µM)	relative viability (GW-2580 + Crizotinib; first compound 2.53 µM)	relative viability (GW-2580 + Crizotinib; first compound 8 µM)	relative viability (GW-2580 + Trametinib; first compound 0.08 µM)	relative viability (GW-2580 + Trametinib; first compound 0.8 µM)	relative viability (GW-2580 + Trametinib; first compound 2.53 µM)	relative viability (GW-2580 + Trametinib; first compound 8 µM)	relative viability (Fedratinib + Vorinostat; first compound 0.1 µM)	relative viability (Fedratinib + Vorinostat; first compound 0.3162 µM)	relative viability (Fedratinib + Vorinostat; first compound 1 µM)	relative viability (GW-2580 + Decitabine; first compound 0.08 µM)	relative viability (GW-2580 + Decitabine; first compound 0.8 µM)	relative viability (GW-2580 + Decitabine; first compound 2.53 µM)	relative viability (GW-2580 + Decitabine; first compound 8 µM)	relative viability (Fedratinib + Dasatinib; first compound 0.1 µM)	relative viability (Fedratinib + Dasatinib; first compound 0.3162 µM)	relative viability (Fedratinib + Dasatinib; first compound 1 µM)
HCC-44	0.899	0.843	0.751	0.839	1.04	1.06	0.986	0.959	1.13	1.08	1.01	0.97	0.912	0.974	1.08			
HCC-827	0.874	0.933	0.863	0.868	0.555	0.552	0.483	0.568	0.862	0.841	0.75	0.275	0.317	0.299	0.319	0.249	0.344	0.298
NCI-H1623																0.339	0.45	0.408
NCI-H2347	0.733	0.702	0.603	0.736	0.294	0.277	0.266	0.268	0.533	0.494	0.587	0.676	0.662	0.582	0.587	0.311	0.275	0.435
PC-14	0.949	1.04	0.907	0.899	0.806	0.675	0.585	0.637	0.761	0.83	0.727	0.191	0.198	0.236	0.221	0.167	0.272	0.143
NCI-H1651	0.917	0.952	0.813	0.874	0.795	0.849	0.786	0.807	0.498	0.567	0.552	0.565	0.666	0.551	0.548	0.437	0.418	0.329
HARA	1.15	1.05	1.12	0.939	0.753	0.714	0.59	0.274	0.512	0.629	0.51	0.658	0.617	0.599	0.409	0.217	0.155	0.24
NCI-H1650	1.06	1.29	1.36	0.919	0.623	0.533	0.579	0.599	0.433	0.581	0.605	0.502	0.396	0.468	0.372		0.295	0.231
NCI-H1395					0.975	0.969	0.988	1.08	0.588	0.807	0.561	0.793	0.689	0.753	0.776	0.36	0.45	0.378
LU99A	0.662	0.633	0.524	0.535	0.668	0.646	0.499	0.462	0.454	0.513	0.41	0.924	1.05	0.812	0.952	0.494	0.508	0.42
NCI-H1355	1.24	1.12	0.946	1.01	0.469	0.502	0.35	0.443	0.688	0.622	0.596	0.314	0.339	0.322	0.353	0.67	0.75	0.374
HCC-78	0.331	0.384	0.287	0.297	0.838	0.844	0.644	0.768	0.382	0.514	0.469	0.699	0.786	0.634	0.698	0.384	0.309	0.306
NCI-H1563	0.836	0.936	0.875	0.77												0.504	0.44	0.429
HCC-15	0.961	0.956	0.775	0.751	0.393	0.412	0.337	0.307	0.875	0.824	0.845	0.631	0.818	0.636	0.69	0.508	0.58	0.337
EKVX	1.09	1.52	0.979	0.935	0.337	0.474	0.461	0.345	0.736	0.737	0.728	0.578	0.749	0.345	0.335	0.498	0.681	0.532
NCI-H2087	0.8	0.993	1	0.772	0.178	0.204	0.2	0.227	0.728	0.734	0.825	0.276	0.267	0.237	0.276	0.803	0.536	0.648
LK-2	0.22	0.247	0.218	0.208	0.918	0.933	0.686	0.904	0.37	0.242	0.303	0.227	0.3	0.253	0.334	0.206	0.227	0.168
NCI-H1437	1.01	1.01	0.828	0.77	0.524	0.571	0.448	0.415	0.816	0.892	0.922	0.564	0.574	0.617	0.535	0.301	0.409	0.329
COR-L23	0.808	0.684	0.549	0.562	0.684	0.632	0.549	0.67	0.407	0.487	0.392	0.451	0.462	0.448	0.432	0.487	0.484	0.512
